{
  "source": "ChEMBL document CHEMBL1151286",
  "about": "“Nostocarboline: isolation and synthesis of a new cholinesterase inhibitor from Nostoc 78-12A” (J Nat Prod, 2005)",
  "target": "Cholinesterase (Equus caballus, UniProt P81908)",
  "sequence (P81908 whole entry)": "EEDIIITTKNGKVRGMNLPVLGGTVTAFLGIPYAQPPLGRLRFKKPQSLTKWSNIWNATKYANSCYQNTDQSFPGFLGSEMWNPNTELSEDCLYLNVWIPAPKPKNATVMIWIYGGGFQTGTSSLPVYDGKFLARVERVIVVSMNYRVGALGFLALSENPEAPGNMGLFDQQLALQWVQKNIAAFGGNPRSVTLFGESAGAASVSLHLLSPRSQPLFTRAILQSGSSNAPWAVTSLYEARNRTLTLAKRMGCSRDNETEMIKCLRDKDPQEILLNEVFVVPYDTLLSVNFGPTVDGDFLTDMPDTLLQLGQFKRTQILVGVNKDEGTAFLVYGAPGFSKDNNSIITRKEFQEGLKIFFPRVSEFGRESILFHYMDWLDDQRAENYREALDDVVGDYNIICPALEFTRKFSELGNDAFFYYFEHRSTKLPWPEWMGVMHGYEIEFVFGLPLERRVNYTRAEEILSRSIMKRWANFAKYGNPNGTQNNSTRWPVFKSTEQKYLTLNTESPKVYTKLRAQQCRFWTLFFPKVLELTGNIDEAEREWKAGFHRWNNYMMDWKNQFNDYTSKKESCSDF",
  "experiment": "Inhibition of horse serum BChE by Ellman's reaction",
  "note": "pIC50: −log10 of the molar value. Several values for one entry are separate records, joined by “and”; a condition that tells them apart may be missing. Equal entries are not always repeated.",
  "data": [
    {"smiles": "C[n+]1ccc2c(c1)[nH]c1ccccc12", "values": [
      {"measurement": "pIC50", "result": 4.95}
    ]},
    {"smiles": "C[n+]1ccc2c(c1)[nH]c1ccc(Cl)cc12", "note": "[NOSTOCARBOLINE]", "values": [
      {"measurement": "pIC50", "result": "4.71 and 4.88"}
    ]}
  ]
}
